Tested on: 282377-053-R-J1-PDC tumor spheroids, viability
Experiment: Anticancer human tumor 282377-053-R-J1-PDC patient-derived colon adenocarcinoma cell line growth inhibition [TAK]
Details: spheroids with HUVEC and MSC; for IC50: curve of first compound; for viability, T/C: stronger effect = lower value; active = viability on the fitted dose curve at most 10% of control; inactive = the rest
Method in brief: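 Drug combinations, each paired with TAK-243 or ipatasertib, were tested on multi-cell spheroids of 60% malignant cells, 25% HUVEC and 15% hMSC. Top concentrations were at or near the clinical Cmax (10 microM if undetermined), decreasing by half-log; viability is given as % test/control.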

[1] = second compound 0.3 µM, first compound 0.0316 µM
[2] = second compound 0.3 µM, first compound 0.1 µM
[3] = second compound 0.3 µM, first compound 0.316 µM
[4] = second compound 0.3 µM, first compound 1 µM
[5] = second compound 0.3 µM, first compound 3.16 µM
[6] = second compound 0.3 µM, first compound 10 µM
[7] = second compound 0.949 µM, first compound 0.0316 µM
[8] = second compound 0.949 µM, first compound 0.1 µM
[9] = second compound 0.949 µM, first compound 0.316 µM
[10] = second compound 0.949 µM, first compound 1 µM
[11] = second compound 0.949 µM, first compound 3.16 µM
[12] = second compound 0.949 µM, first compound 10 µM
[13] = second compound 3 µM, first compound 0.0316 µM
[14] = second compound 3 µM, first compound 0.1 µM
[15] = second compound 3 µM, first compound 0.316 µM
[16] = second compound 3 µM, first compound 1 µM
[17] = second compound 3 µM, first compound 3.16 µM
[18] = second compound 3 µM, first compound 10 µM
[19] = second compound 9.49 µM, first compound 0.0316 µM
[20] = second compound 9.49 µM, first compound 0.1 µM
[21] = second compound 9.49 µM, first compound 0.316 µM
[22] = second compound 9.49 µM, first compound 1 µM
[23] = second compound 9.49 µM, first compound 3.16 µM
[24] = second compound 9.49 µM, first compound 10 µM
[25] = second compound 30 µM, first compound 0.0316 µM
[26] = second compound 30 µM, first compound 0.1 µM
[27] = second compound 30 µM, first compound 0.316 µM
[28] = second compound 30 µM, first compound 1 µM
[29] = second compound 30 µM, first compound 3.16 µM
[30] = second compound 30 µM, first compound 10 µM
[31] = second compound 0.3 µM, first compound 0.000316 µM
[32] = second compound 0.3 µM, first compound 0.001 µM
[33] = second compound 0.3 µM, first compound 0.00316 µM
[34] = second compound 0.3 µM, first compound 0.01 µM
[35] = second compound 0.949 µM, first compound 0.000316 µM
[36] = second compound 0.949 µM, first compound 0.001 µM
[37] = second compound 0.949 µM, first compound 0.00316 µM
[38] = second compound 0.949 µM, first compound 0.01 µM
[39] = second compound 3 µM, first compound 0.000316 µM
[40] = second compound 3 µM, first compound 0.001 µM
[41] = second compound 3 µM, first compound 0.00316 µM
[42] = second compound 3 µM, first compound 0.01 µM
[43] = second compound 9.49 µM, first compound 0.000316 µM
[44] = second compound 9.49 µM, first compound 0.001 µM
[45] = second compound 9.49 µM, first compound 0.00316 µM
[46] = second compound 9.49 µM, first compound 0.01 µM
[47] = second compound 30 µM, first compound 0.000316 µM
[48] = second compound 30 µM, first compound 0.001 µM
[49] = second compound 30 µM, first compound 0.00316 µM
[50] = second compound 30 µM, first compound 0.01 µM
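Note: spheroids exposed to drugs for seven days before readout.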

CC(C)(C)c1nc(-c2cccc(NS(=O)(=O)c3c(F)cccc3F)c2F)c(-c2ccnc(N)n2)s1 + CC(C)NCC(C(=O)N1CCN(c2ncnc3c2C(C)CC3O)CC1)c1ccc(Cl)cc1
> 10000 nM: IC50 (second compound 0.3 µM) | IC50 (second compound 0.949 µM) | IC50 (second compound 3 µM) | IC50 (second compound 9.49 µM)
inactive: viability, T/C [1] 83.5% | viability, T/C [2] 81% | viability, T/C [3] 79.3% | viability, T/C [4] 72% | viability, T/C [5] 71.3% | viability, T/C [6] 63.7% | viability, T/C [7] 78.4% | viability, T/C [8] 79.7% | viability, T/C [9] 71.9% | viability, T/C [10] 66.5% | viability, T/C [11] 59.6% | viability, T/C [12] 57.5% | viability, T/C [13] 77.7% | viability, T/C [14] 74.8% | viability, T/C [15] 69.9% | viability, T/C [16] 58.8% | viability, T/C [17] 54.4% | viability, T/C [18] 53.6% | viability, T/C [19] 71.6% | viability, T/C [20] 72.4% | viability, T/C [21] 65.5% | viability, T/C [22] 51.2% | viability, T/C [23] 47.5% | viability, T/C [24] 52.8% | viability, T/C [25] 60% | viability, T/C [26] 58.4% | viability, T/C [27] 54.6% | viability, T/C [28] 36.1% | viability, T/C [29] 35.7% | viability, T/C [30] 42.6%
437 nM: IC50 (second compound 30 µM)

CC(C)CC(NC(=O)CNC(=O)c1cc(Cl)ccc1Cl)B1OC(=O)CC(CC(=O)O)(C(=O)O)O1 (stereo not given) + CC(C)NCC(C(=O)N1CCN(c2ncnc3c2C(C)CC3O)CC1)c1ccc(Cl)cc1
inactive: viability, T/C [31] 99.5% | viability, T/C [32] 93.9% | viability, T/C [33] 94.3% | viability, T/C [34] 92.7% | viability, T/C [1] 89.7% | viability, T/C [35] 100% | viability, T/C [36] 88.3% | viability, T/C [37] 87.1% | viability, T/C [38] 94.5% | viability, T/C [7] 77.1% | viability, T/C [39] 82.4% | viability, T/C [40] 87.8% | viability, T/C [41] 84.2% | viability, T/C [42] 84.5% | viability, T/C [13] 69.2% | viability, T/C [43] 81.3% | viability, T/C [44] 79.3% | viability, T/C [45] 81.7% | viability, T/C [46] 77.5% | viability, T/C [19] 61.5% | viability, T/C [47] 70.2% | viability, T/C [48] 74.6% | viability, T/C [49] 67.7% | viability, T/C [50] 66.8% | viability, T/C [25] 57.3%
active: viability, T/C [2] 3.57% | viability, T/C [8] 1.73% | viability, T/C [14] 1.39% | viability, T/C [20] 1.53% | viability, T/C [26] 0.99%
47.9 nM: IC50 (second compound 0.949 µM)
36.3 nM: IC50 (second compound 30 µM)
53.8 nM: IC50 (second compound 0.3 µM)
43.8 nM: IC50 (second compound 3 µM)
39.3 nM: IC50 (second compound 9.49 µM)

CC(C)n1nc(-c2ccc3oc(N)nc3c2)c2c(N)ncnc21 + CC(C)NCC(C(=O)N1CCN(c2ncnc3c2C(C)CC3O)CC1)c1ccc(Cl)cc1
4.07 nM: IC50 (second compound 30 µM)
14.7 nM: IC50 (second compound 9.49 µM)
inactive: viability, T/C [31] 106% | viability, T/C [32] 103% | viability, T/C [33] 95.7% | viability, T/C [34] 88% | viability, T/C [1] 69.7% | viability, T/C [2] 56.1% | viability, T/C [35] 92% | viability, T/C [36] 93% | viability, T/C [37] 86.3% | viability, T/C [38] 89.9% | viability, T/C [7] 71.7% | viability, T/C [8] 38% | viability, T/C [39] 83.5% | viability, T/C [40] 85.9% | viability, T/C [41] 79% | viability, T/C [42] 71.5% | viability, T/C [13] 49.1% | viability, T/C [14] 22.7% | viability, T/C [43] 81.4% | viability, T/C [44] 77.3% | viability, T/C [45] 74.7% | viability, T/C [46] 60.5% | viability, T/C [19] 30% | viability, T/C [20] 14.8% | viability, T/C [47] 68.8% | viability, T/C [48] 70.4% | viability, T/C [49] 56.5% | viability, T/C [50] 25.9% | viability, T/C [25] 15.9% | viability, T/C [26] 8.24%
> 100 nM: IC50 (second compound 0.3 µM)
30.3 nM: IC50 (second compound 3 µM)
66.6 nM: IC50 (second compound 0.949 µM)

CCCS(=O)(=O)Nc1ccc(F)c(C(=O)c2c[nH]c3ncc(-c4ccc(Cl)cc4)cc23)c1F + CC(C)NCC(C(=O)N1CCN(c2ncnc3c2C(C)CC3O)CC1)c1ccc(Cl)cc1
7810 nM: IC50 (second compound 0.3 µM)
inactive: viability, T/C [3] 79.5% | viability, T/C [4] 79.8% | viability, T/C [5] 82.6% | viability, T/C [6] 24.6% | viability, T/C (second compound 0.3 µM, first compound 31.6 µM) 1.89% | viability, T/C (second compound 0.3 µM, first compound 100 µM) 98.5% | viability, T/C [9] 76.7% | viability, T/C [10] 79.9% | viability, T/C [11] 84.2% | viability, T/C [12] 7.58% | viability, T/C (second compound 0.949 µM, first compound 31.6 µM) 2.94% | viability, T/C (second compound 0.949 µM, first compound 100 µM) 95.3% | viability, T/C [15] 76.8% | viability, T/C [16] 73.7% | viability, T/C [17] 80.5% | viability, T/C [18] 33.4% | viability, T/C (second compound 3 µM, first compound 31.6 µM) 1.38% | viability, T/C (second compound 3 µM, first compound 100 µM) 89.3% | viability, T/C [21] 72.4% | viability, T/C [22] 70.1% | viability, T/C [23] 71.3% | viability, T/C [24] 10.9% | viability, T/C (second compound 9.49 µM, first compound 31.6 µM) 10.1% | viability, T/C (second compound 9.49 µM, first compound 100 µM) 76.7% | viability, T/C [27] 57.4% | viability, T/C [28] 61% | viability, T/C [29] 49.5% | viability, T/C [30] 9.48% | viability, T/C (second compound 30 µM, first compound 31.6 µM) 0.93% | viability, T/C (second compound 30 µM, first compound 100 µM) 46.8%
6860 nM: IC50 (second compound 0.949 µM)
7560 nM: IC50 (second compound 3 µM)
2990 nM: IC50 (second compound 30 µM)
5950 nM: IC50 (second compound 9.49 µM)
